The values that follow come from patent US20170166558A1, “O-GLCNAC TRANSFERASE (OGT) INHIBITORS AND USES THEREOF” (President and Fellows of Harvard College, priority 2014, published 2017).

One assay has as its target T1, sOGT (Homo sapiens, UniProt O15294).
T1 sequence (O15294 1-665 isoform O15294-4): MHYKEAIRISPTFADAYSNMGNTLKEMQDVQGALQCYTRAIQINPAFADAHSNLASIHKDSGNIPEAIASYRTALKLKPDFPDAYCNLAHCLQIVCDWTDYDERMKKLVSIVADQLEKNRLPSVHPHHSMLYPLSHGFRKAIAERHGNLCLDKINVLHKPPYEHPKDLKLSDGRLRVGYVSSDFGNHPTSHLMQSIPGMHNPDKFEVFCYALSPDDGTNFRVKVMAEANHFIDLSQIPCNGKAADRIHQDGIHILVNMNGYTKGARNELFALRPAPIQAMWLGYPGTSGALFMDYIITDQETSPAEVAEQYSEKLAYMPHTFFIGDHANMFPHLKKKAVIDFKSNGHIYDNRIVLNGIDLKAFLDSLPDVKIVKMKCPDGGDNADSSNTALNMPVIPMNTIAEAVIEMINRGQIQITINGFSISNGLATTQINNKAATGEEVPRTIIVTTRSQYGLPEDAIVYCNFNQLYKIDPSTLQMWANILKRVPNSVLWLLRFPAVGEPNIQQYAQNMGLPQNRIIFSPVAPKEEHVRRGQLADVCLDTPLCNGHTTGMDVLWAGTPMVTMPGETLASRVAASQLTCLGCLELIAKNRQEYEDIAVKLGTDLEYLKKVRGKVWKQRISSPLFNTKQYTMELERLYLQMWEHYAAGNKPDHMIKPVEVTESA
Kind of assay: Fluorescence polarization displacement screen with fluorescein-linked UDP-GlcNAc analog. Conditions: 100 μM treatment. It counts as binding. For orientation: In fluorescence polarisation assays a small probe gives low polarisation when free and higher when bound to something large.
`O=C(C(NS(=O)(=O)c1ccc2[nH]c(=O)ccc2c1)c1cccc(C(F)(F)F)c1)N(Cc1ccco1)Cc1cccs1` (stereo not shown) [drawing 127]: the “% OGT activity (100 μM treatment)” value is 29%.

As for `O=C(C(NS(=O)(=O)c1ccc2[nH]c(=O)ccc2c1)c1ccccc1F)N(Cc1ccco1)Cc1cccs1` (stereo not shown) [drawing 129], the “% OGT activity (100 μM treatment)” value is on record as 0.5%.

For `O=C(C(NS(=O)(=O)c1ccc2[nH]c(=O)ccc2c1)c1ccccc1C(F)(F)F)N(Cc1ccco1)Cc1cccs1` (stereo not shown) [drawing 125], the “% OGT activity (100 μM treatment)” value is on record as 38%. `O=C(C1c2ccccc2CCN1S(=O)(=O)c1ccc2[nH]c(=O)ccc2c1)N(Cc1ccco1)Cc1cccs1` (stereo not shown) [drawing 115]: the “% OGT activity (100 μM treatment)” value is given as 65%. With `O=C(C(NS(=O)(=O)c1ccc2[nH]c(=O)ccc2c1)c1ccccc1F)N(Cc1ccco1)Cc1cccs1` (stereo not shown) [drawing 133], the “% OGT activity (100 μM treatment)” value was 24%. As for `O=C(C(NS(=O)(=O)c1ccc2[nH]c(=O)ccc2c1)c1cccc(C(F)(F)F)c1)N(Cc1ccco1)Cc1cccs1` (stereo not shown) [drawing 128], the “% OGT activity (100 μM treatment)” value is listed as 7.4%.

With `O=C(C(NS(=O)(=O)c1ccc2[nH]c(=O)ccc2c1)c1ccc(C(F)(F)F)cc1)N(Cc1ccco1)Cc1cccs1` (stereo not shown) [drawing 122], the “% OGT activity (100 μM treatment)” value is reported as 33%.

Turning to `Cc1cccc(C(NS(=O)(=O)c2ccc3[nH]c(=O)ccc3c2)C(=O)N(Cc2ccco2)Cc2cccs2)c1` (stereo not shown) [drawing 131], the “% OGT activity (100 μM treatment)” value was “No inhibition”. `Cc1ccccc1C(NS(=O)(=O)c1ccc2[nH]c(=O)ccc2c1)C(=O)N(Cc1ccco1)Cc1cccs1` (stereo not shown) [drawing 132]: the “% OGT activity (100 μM treatment)” value came out at 4.5%.

For `Cc1ccccc1C(NS(=O)(=O)c1ccc2[nH]c(=O)ccc2c1)C(=O)N(Cc1ccco1)Cc1cccs1` (stereo not shown) [drawing 136], the “% OGT activity (100 μM treatment)” value came to 10%.

For `Cc1ccc(C(NS(=O)(=O)c2ccc3[nH]c(=O)ccc3c2)C(=O)N(Cc2ccco2)Cc2cccs2)cc1` (stereo not shown) [drawing 130], the “% OGT activity (100 μM treatment)” value stood at 11%.

Regarding `O=C([C@@H](NS(=O)(=O)c1ccc2[nH]c(=O)[nH]c(=O)c2c1)c1ccccc1)N(Cc1ccco1)Cc1cccs1`, the “% OGT activity (100 μM treatment)” value is listed as “No inhibition”. Take `O=C(C(NS(=O)(=O)c1ccc2[nH]c(=O)ccc2c1)c1ccccc1C(F)(F)F)N(Cc1ccco1)Cc1cccs1` (stereo not shown) [drawing 121]: the “% OGT activity (100 μM treatment)” value is listed as 11%.

Regarding `O=C(C(NS(=O)(=O)c1ccc2[nH]c(=O)ccc2c1)c1ccc(C(F)(F)F)cc1)N(Cc1ccco1)Cc1cccs1` (stereo not shown) [drawing 126], the “% OGT activity (100 μM treatment)” value stood at 54%. With `O=C(C1c2ccccc2CN1S(=O)(=O)c1ccc2[nH]c(=O)ccc2c1)N(Cc1ccco1)Cc1cccs1` (stereo not shown) [drawing 114], the “% OGT activity (100 μM treatment)” value came out at 43%.

For `Cc1cccc(C(NS(=O)(=O)c2ccc3[nH]c(=O)ccc3c2)C(=O)N(Cc2ccco2)Cc2cccs2)c1` (stereo not shown) [drawing 135], the “% OGT activity (100 μM treatment)” value was “No inhibition”.

For the molecule `Cc1ccc(C(NS(=O)(=O)c2ccc3[nH]c(=O)ccc3c2)C(=O)N(Cc2ccco2)Cc2cccs2)cc1` (stereo not shown) [drawing 134], the “% OGT activity (100 μM treatment)” value is 66%. As to `O=C(C(NS(=O)(=O)c1ccc2[nH]c(=O)ccc2c1)c1ccccc1C(F)(F)F)N(Cc1ccco1)Cc1cccs1` (stereo not shown) [drawing 119], the “% OGT activity (100 μM treatment)” value was 0.7%. Regarding `O=C(NCc1cccs1)[C@H](NS(=O)(=O)c1ccc2[nH]c(=O)ccc2c1)c1ccccc1`, the “% OGT activity (100 μM treatment)” value was “No inhibition”.

Staying with this assay, now noted: 100 μM treatment; read-out: % OGT activity (100 μM treatment).
With `O=C(NCc1ccco1)[C@H](NS(=O)(=O)c1ccc2[nH]c(=O)ccc2c1)c1ccccc1`, the remaining activity at 100 µM was determined as 64%. Regarding `COc1cccc([C@@H](NS(=O)(=O)c2ccc3[nH]c(=O)ccc3c2)C(=O)N(Cc2ccco2)Cc2cccs2)c1`, the remaining activity at 100 µM came to 2.5%. Consider `CN(Cc1cccs1)C(=O)[C@H](NS(=O)(=O)c1ccc2[nH]c(=O)ccc2c1)c1ccccc1`, for which the remaining activity at 100 µM stood at 2.5%. On to `O=C([C@H](NS(=O)(=O)c1ccc2[nH]c(=O)ccc2c1)c1ccc(Cl)cc1)N(Cc1ccco1)Cc1cccs1`, for which the remaining activity at 100 µM was 22%.

On to `O=C([C@H](NS(=O)(=O)c1ccc2[nH]c(=O)ccc2c1)c1ccc(O)cc1)N(Cc1ccco1)Cc1cccs1`, for which the remaining activity at 100 µM was found to be 0.7%.

For `O=C(C1c2ccccc2CN1S(=O)(=O)c1ccc2[nH]c(=O)ccc2c1)N(Cc1ccco1)Cc1cccs1` (stereo not shown) [drawing 109], the remaining activity at 100 µM amounted to 56%. Take `O=C([C@H](NS(=O)(=O)c1ccc2[nH]c(=O)[nH]c(=O)c2c1)c1ccccc1)N(Cc1ccco1)Cc1cccs1`: the remaining activity at 100 µM was 68%.

For the molecule `CCCC[C@@H](NS(=O)(=O)c1ccc2[nH]c(=O)ccc2c1)C(=O)N(Cc1ccco1)Cc1cccs1`, the remaining activity at 100 µM amounted to 8%. Take `O=C([C@H](NS(=O)(=O)c1ccc2[nH]c(=O)ccc2c1)c1ccccc1)N1CCOCC1`: the remaining activity at 100 µM stood at 47%. `CN(Cc1ccco1)C(=O)[C@H](NS(=O)(=O)c1ccc2[nH]c(=O)ccc2c1)c1ccccc1`: the remaining activity at 100 µM is 5%. As for `O=C([C@@H](Cc1ccccc1)NS(=O)(=O)c1ccc2[nH]c(=O)ccc2c1)N(Cc1ccco1)Cc1cccs1` [drawing 149], the remaining activity at 100 µM stood at 53%. On to `COc1ccc([C@@H](NS(=O)(=O)c2ccc3[nH]c(=O)ccc3c2)C(=O)N(Cc2ccco2)Cc2cccs2)cc1`, for which the remaining activity at 100 µM was 2.9%. In the case of `O=C([C@H](NS(=O)(=O)c1ccc2[nH]c(=O)ccc2c1)c1ccc(F)cc1)N(Cc1ccco1)Cc1cccs1`, the remaining activity at 100 µM came to 5%. On the same count and under the same terms, next, `O=C([C@@H](NS(=O)(=O)c1ccc2[nH]c(=O)ccc2c1)c1ccc(F)cc1)N(Cc1ccco1)Cc1cccs1`: 0.9%; `O=C([C@H](NS(=O)(=O)c1ccc2[nH]c(=O)ccc2c1)c1cccc(F)c1)N(Cc1ccco1)Cc1cccs1`: 2.6%; `O=C([C@H](NS(=O)(=O)c1ccc2[nH]c(=O)ccc2c1)c1ccccc1Cl)N(Cc1ccco1)Cc1cccs1`: 4%. Consider `O=C([C@H](NS(=O)(=O)c1ccc2[nH]c(=O)ccc2c1)c1cccs1)N(Cc1ccco1)Cc1cccs1`, for which the remaining activity at 100 µM is 7%. With `CCNC(=O)[C@H](NS(=O)(=O)c1ccc2[nH]c(=O)ccc2c1)c1ccccc1`, the remaining activity at 100 µM stood at 26%.

In the case of `O=C([C@H](NS(=O)(=O)c1ccc2[nH]c(=O)ccc2c1)c1ccccc1)N1CCCCC1`, the remaining activity at 100 µM amounted to 22%. As for `CN1CCN(C(=O)[C@H](NS(=O)(=O)c2ccc3[nH]c(=O)ccc3c2)c2ccccc2)CC1`, the remaining activity at 100 µM amounted to 47%. On to `O=C([C@H](NS(=O)(=O)c1ccc2[nH]c(=O)ccc2c1)C1CCCCC1)N(Cc1ccco1)Cc1cccs1`, for which the remaining activity at 100 µM turned out to be 22%. `O=C(C1c2ccccc2CCN1S(=O)(=O)c1ccc2[nH]c(=O)ccc2c1)N(Cc1ccco1)Cc1cccs1` (stereo not shown) [drawing 110]: the remaining activity at 100 µM is 47%.

The same assay, now with this note: read-out: % OGT activity (100 μM treatment).
Take `O=C([C@H](NS(=O)(=O)c1ccc2[nH]c(=O)ccc2c1)c1ccccc1)N(Cc1ccco1)Cc1cccs1`: the remaining activity at 100 µM stood at 1.73%. Consider `O=C([C@@H](NS(=O)(=O)c1ccc2[nH]c(=O)ccc2c1)c1ccccc1)N(Cc1ccco1)Cc1cccs1`, for which the remaining activity at 100 µM worked out at 7%.
